Results from patent publication US11925690B2, “Bifunctional molecules for targeting Rpn11” (AMPHISTA THERAPEUTICS LTD, priority 2018, dated 2024).

What was measured:
Type in all cases: cell-based
Brd4 (L) [1] = target: T1, Brd4 (L) (Homo sapiens, UniProt O60885); test: Time-dependent BET degradation, immunoblot; parameters: Dmax: dose or concentration left out as unconfirmed; details: HEK293, Brd4 (L); for Dmax: 0-24 hrs; for Abs. T1/2 / T1/2: 1 μM; for Abs. T1/2: time to deplete 50% of the protein relative to DMSO; for T1/2: time to reach 50% of the Dmax
T1 construct: endogenous in cells; host or cells: HEK293 (CRL-1573), HeLa (CCL-2)
Method: (§1) Immunoblotting. Proteins were separated by SDS-PAGE on NuPage 4-12% Bis-Tris gels, followed by transfer to Amersham Protran 0.45 NC nitrocellulose membrane (GE Healthcare) using wet transfer. Membranes were blocked using 5% w/v milk in Tris-buffered saline (TBS) with 0.1% Tween-20. Blots were probed (overnight at 4 °C) using anti-Brd2 (Abcam ab139690, 1:2,000 dilution), anti-Brd3 (Abcam ab50818, 1:500 dilution), and anti-Brd4 (Abcam ab128874, 1:1,000 dilution) primary antibodies, as appropriate. The next day, blots were washed with TBST and incubated (1 h at Room temperature) with anti-Tubulin hFAB-rhodamine (BioRad, 12004166) primary antibody, and either anti-rabbit IRDye 800CW (Licor 1:1,000 dilution) or anti-mouse IRDye 800CW (Licor 1:1,000 dilution) secondary antibody. Blots were developed using a Bio-Rad ChemiDoc MP Imaging System, and band quantification was performed using Image Studio software (LiCor). Band intensities were normalized to the tubulin loading control and reported as % of the average 0.1% DMSO vehicle intensity. Degradation data was plotted and analysed using Prism (Graphpad, version 8).
(§2) HEK293 (0.5×10^6) cells were seeded in standard 6-well plates (2 mL medium) overnight before treatment with compounds at 1 μM concentration, with a final DMSO concentration of 0.1% v/v. After incubation for the desired time (0-24 hrs), cells were washed with DPBS (Gibco) and lysed using 85 μL RIPA buffer (Sigma-Aldrich) supplemented with complete Mini EDTA-free protease inhibitor cocktail (Roche) and benzonase. Lysates were clarified by centrifugation (20000 g, 10 min, 4° C.) and the total protein content of the supernatant was quantified using a Bradford colorimetric assay. Samples were prepared using equal amounts of total protein and LDS sample buffer (Invitrogen). Band intensities were normalized to the tubulin loading control and reported as % of the average 0.1% DMSO vehicle intensity. Degradation data was plotted and analysed using Prism (Graphpad, version 8).
(§3) MZ1 and 11JQ17 were used at 1 μM (4 h) for positive and negative controls, respectively. […]

Brd4 (S) [2] = target: T2, Brd4 (S) (Homo sapiens, UniProt O60885); test: Time-dependent BET degradation, immunoblot; parameters: Dmax: dose or concentration left out as unconfirmed; details: HEK293, Brd4 (S); for Dmax: 0-24 hrs; for Abs. T1/2 / T1/2: 1 μM; for Abs. T1/2: time to deplete 50% of the protein relative to DMSO; for T1/2: time to reach 50% of the Dmax
T2 construct: endogenous in cells; host or cells: HEK293 (CRL-1573), HeLa (CCL-2)
Method: as §1, §2, §3

Brd4 (L) [3] = target: T1, Brd4 (L); test: Concentration-dependent BET degradation, immunoblot; details: 4 h, 1 nM-10 μM
Method: as §1
as §2, with “HeLa (5×10^5) and HEK293” for “HEK293”, “(1×10^6)” for “(0.5×10^6)”, “the desired concentration (1 nM-10 μM),” for “1 μM concentration,”, “4 h treatment time,” for “incubation for the desired time (0-24 hrs),”, “cOmplete” for “complete”
(§4) MZ1 and 11JQ17 were used at 1 μM for positive and negative controls, respectively. […] For the table, Dmax: +(Dmax≤25%); ++(26%≤Dmax≤50%); +++(51%≤Dmax≤70%); ++++(71%≤DC50: A (DC50≤50 nM); B (51 nM≤DC50≤500 nM); C (501 nM≤DC50).

Brd4 (S) [4] = target: T2, Brd4 (S); test: as above; details: 4 h, 1 nM-10 μM
Method: as §1
as §2, with “HeLa (5×10^5) and HEK293” for “HEK293”, “(1×10^6)” for “(0.5×10^6)”, “the desired concentration (1 nM-10 μM),” for “1 μM concentration,”, “4 h treatment time,” for “incubation for the desired time (0-24 hrs),”, “cOmplete” for “complete”
as §4

Brd2, Brd3 and Brd4 = test: Immunoblot analysis of BET protein levels in HEK293 cells; details: for Brd2, Brd3 and Brd4 protein levels (FIG. 5): HEK293, 1 μM, various time points; for Brd2, Brd3 and Brd4 protein levels (FIG. 4): increasing concentrations
Method: Cell culture. HeLa (CCL-2) and HEK293 (CRL-1573) cells were purchased from ATCC and cultured in DMEM medium (Gibco) supplemented with 10% FBS, 100 μg/mL penicillin/streptomycin and L-glutamine. Cells were grown at 37° C. and 5% CO2 and were kept no longer than 30 passages. All cell lines were routinely tested for mycoplasma contamination using MycoAlert kit from Lonza.
HeLa (5×10^5) and HEK293 (1×10^6) cells were seeded in standard 6-well plates (2 mL medium) overnight before treatment with 1 μM compound with a final DMSO concentration of […]. After 4 h incubation time, cells were washed with DPBS (Gibco) and lysed using 85 μL RIPA buffer (Sigma-Aldrich) supplemented with cOmplete Mini EDTA-free protease inhibitor cocktail (Roche) and benzonase. Lysates were clarified by centrifugation (20000 g, 10 min, 4° C.) and the total protein content of the supernatant was quantified using a Bradford colorimetric assay. Samples were prepared using equal amounts of total protein and LDS sample buffer (Invitrogen).
as §1
as §2, with “HeLa (5×10^5) and HEK293” for “HEK293”, “(1×10^6)” for “(0.5×10^6)”, “the desired concentration (1 nM-10 μM),” for “1 μM concentration,”, “4 h treatment time,” for “incubation for the desired time (0-24 hrs),”, “cOmplete” for “complete”
HEK293 (0.5×10^6) cells were seeded in standard 6-well plates (2 mL medium) overnight before treatment with compounds at 1 μM concentration, with a final DMSO concentration of 0.1% v/v. […] Lysates were clarified by centrifugation (20000 g, 10 min, 4° C.) and the total protein content of the supernatant was quantified using a Bradford colorimetric assay. […] Degradation data was plotted and analysed using Prism (Graphpad, version 8).

Brd3 [5] = target: T3, Brd3 (Homo sapiens, UniProt Q15059); test: Time-dependent BET degradation, immunoblot; details: HEK293, Brd3, 1 μM; for Dmax at 1 µM: 0-24 hrs; for Abs. T1/2: time to deplete 50% of the protein relative to DMSO; for T1/2: time to reach 50% of the Dmax
T3 sequence (Q15059 whole entry): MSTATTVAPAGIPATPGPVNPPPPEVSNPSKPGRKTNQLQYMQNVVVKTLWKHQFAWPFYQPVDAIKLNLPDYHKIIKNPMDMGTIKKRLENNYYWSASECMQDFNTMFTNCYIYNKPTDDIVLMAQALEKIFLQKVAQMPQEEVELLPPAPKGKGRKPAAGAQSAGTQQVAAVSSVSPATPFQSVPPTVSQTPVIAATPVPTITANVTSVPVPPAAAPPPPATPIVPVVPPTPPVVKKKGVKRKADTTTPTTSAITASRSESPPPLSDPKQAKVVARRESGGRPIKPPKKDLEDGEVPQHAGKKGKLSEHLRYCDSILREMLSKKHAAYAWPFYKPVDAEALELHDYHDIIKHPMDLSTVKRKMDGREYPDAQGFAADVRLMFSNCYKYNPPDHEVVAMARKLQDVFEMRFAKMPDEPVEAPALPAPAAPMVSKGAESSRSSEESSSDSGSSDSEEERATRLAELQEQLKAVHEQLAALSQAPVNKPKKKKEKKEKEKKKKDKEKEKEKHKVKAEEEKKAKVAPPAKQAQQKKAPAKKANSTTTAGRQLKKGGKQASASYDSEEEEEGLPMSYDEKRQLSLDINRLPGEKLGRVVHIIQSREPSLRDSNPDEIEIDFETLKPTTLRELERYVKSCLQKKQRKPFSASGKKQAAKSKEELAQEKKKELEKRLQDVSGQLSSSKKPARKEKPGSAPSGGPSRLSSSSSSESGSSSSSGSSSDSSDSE
Method: as §1, §2, §3

Brd2 = Brd2 (Homo sapiens, UniProt P25440); test: Concentration-dependent BET degradation, immunoblot; parameters: endogenous in cells; host or cells: HEK293 (CRL-1573), HeLa (CCL-2); details: 1 nM-10 μM
Sequence of Brd2 (P25440 whole entry): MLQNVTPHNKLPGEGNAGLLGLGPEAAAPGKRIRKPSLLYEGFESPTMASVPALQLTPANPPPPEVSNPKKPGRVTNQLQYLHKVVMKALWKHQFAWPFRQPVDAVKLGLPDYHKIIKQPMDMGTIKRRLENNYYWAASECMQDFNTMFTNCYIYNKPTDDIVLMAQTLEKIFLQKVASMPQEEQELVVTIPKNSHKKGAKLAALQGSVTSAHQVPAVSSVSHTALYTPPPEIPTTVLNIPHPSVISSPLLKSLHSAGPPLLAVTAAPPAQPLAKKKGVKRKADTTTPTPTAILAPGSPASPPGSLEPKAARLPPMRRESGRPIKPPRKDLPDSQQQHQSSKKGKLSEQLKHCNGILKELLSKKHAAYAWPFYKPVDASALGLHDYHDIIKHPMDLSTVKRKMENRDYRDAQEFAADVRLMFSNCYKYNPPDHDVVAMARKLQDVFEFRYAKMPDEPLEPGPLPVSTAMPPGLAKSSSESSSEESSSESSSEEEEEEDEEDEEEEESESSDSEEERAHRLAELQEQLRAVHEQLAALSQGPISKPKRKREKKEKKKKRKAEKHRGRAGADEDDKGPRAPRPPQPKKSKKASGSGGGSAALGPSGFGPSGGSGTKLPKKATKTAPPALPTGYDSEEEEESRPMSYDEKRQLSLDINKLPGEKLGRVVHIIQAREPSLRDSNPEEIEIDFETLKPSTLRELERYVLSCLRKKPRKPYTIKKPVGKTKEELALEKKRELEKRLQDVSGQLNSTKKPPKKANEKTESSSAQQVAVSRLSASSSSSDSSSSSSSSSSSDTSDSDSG
Method: as §1
as §2, with “HeLa (5×10^5) and HEK293” for “HEK293”, “(1×10^6)” for “(0.5×10^6)”, “the desired concentration (1 nM-10 μM),” for “1 μM concentration,”, “4 h treatment time,” for “incubation for the desired time (0-24 hrs),”, “cOmplete” for “complete”
as §4

Brd3 [6] = target: T3, Brd3; test: as above; parameters: endogenous in cells; host or cells: HEK293 (CRL-1573), HeLa (CCL-2); details: 1 nM-10 μM
Method: as §1
as §2, with “HeLa (5×10^5) and HEK293” for “HEK293”, “(1×10^6)” for “(0.5×10^6)”, “the desired concentration (1 nM-10 μM),” for “1 μM concentration,”, “4 h treatment time,” for “incubation for the desired time (0-24 hrs),”, “cOmplete” for “complete”
as §4

Row | SMILES | Dmax (Brd4 (L) [1]) [%] | Abs. T1/2 (Brd4 (L) [1]) [h] | T1/2 (Brd4 (L) [1]) [h] | Dmax (Brd4 (S) [2]) [%] | Abs. T1/2 (Brd4 (S) [2]) [h] | T1/2 (Brd4 (S) [2]) [h] | DC50 (Brd4 (L) [3]; HEK293, Brd4 (L)) [nM] | Dmax (Brd4 (L) [3]; HEK293, Brd4 (L)) [%] | DC50 (Brd4 (L) [3]; HeLa) [nM] | Dmax (Brd4 (L) [3]; HeLa) [%] | DC50 (Brd4 (S) [4]; HEK293, Brd4 (S)) [nM] | Dmax (Brd4 (S) [4]; HEK293, Brd4 (S)) [%] | DC50 (Brd4 (S) [4]; HeLa) [nM] | Dmax (Brd4 (S) [4]; HeLa) [%] | Dmax at 1 µM (Brd3 [5]) [%] | Abs. T1/2 (Brd3 [5]) [h] | T1/2 (Brd3 [5]) [h] | DC50 (Brd2; HEK293, Brd2, 4 h) [nM] | Dmax (Brd2; HEK293, Brd2, 4 h) [%] | DC50 (Brd2; HeLa, Brd2, 4 h) [nM] | also measured
1 | Cc1sc2c(c1C)C(c1ccc(Cl)cc1)=N[C@@H](CC(=O)NCCCCNC(=O)c1cc(S)c3ncc(C(=O)NCCc4nccs4)cc3c1)c1nnc(C)n1-2 [Example 11JQ7] | 98 | 1.2 | 1.2 | 99 | 1.9 | 1.9 | 51 to 500 | ≥ 71 | ≤ 50 | ≥ 71 | 51 to 500 | ≥ 71 | ≤ 50 | ≥ 71 | 95 | 3.4 | 2.9 | 51 to 500 | ≥ 71 | ≥ 501 | Brd2, Brd3 and Brd4 protein levels (FIG. 1) (Brd2, Brd3 and Brd4; HEK293, 1 μM compound, 4 h, relative to 0.1% DMSO): approaching the potency of PROTAC MZ1; Dmax (Brd2; HeLa, Brd2, 4 h): ≥ 71%; DC50 (Brd3 [6]; HEK293, Brd3, 4 h): ≥ 501 nM; Dmax (Brd3 [6]; HEK293, Brd3, 4 h): ≥ 71%; DC50 (Brd3 [6]; HeLa, Brd3, 4 h): 51 to 500 nM; Dmax (Brd3 [6]; HeLa, Brd3, 4 h): ≥ 71%
2 | Cc1sc2c(c1C)C(c1ccc(Cl)cc1)=N[C@@H](CC(=O)NCCOCCNC(=O)c1cc(SC(=O)c3ccccc3)c3ncc(C(=O)NCCc4nccs4)cc3c1)c1nnc(C)n1-2 [Example 11JQ15] | 90 | 1.1 | 0.8 | 90 | 1.2 | 0.9 | 51 to 500 | 51 to 70 | 51 to 500 | 51 to 70 | 51 to 500 | 51 to 70 | 51 to 500 | 51 to 70 | 70 | 2.6 | 1.5 | 51 to 500 | 26 to 50 | 51 to 500 | Brd2, Brd3 and Brd4 protein levels (FIG. 5) (Brd2, Brd3 and Brd4): depletion of Brd2, Brd3 and Brd4 protein levels; Brd2, Brd3 and Brd4 protein levels (FIG. 4) (Brd2, Brd3 and Brd4; 4 h): depletion of Brd2, Brd3 and Brd4 protein levels; Dmax (Brd2; HeLa, Brd2, 4 h): 26 to 50%; DC50 (Brd3 [6]; HEK293, Brd3, 4 h): 51 to 500 nM; Dmax (Brd3 [6]; HEK293, Brd3, 4 h): 26 to 50%; DC50 (Brd3 [6]; HeLa, Brd3, 4 h): 51 to 500 nM; Dmax (Brd3 [6]; HeLa, Brd3, 4 h): 26 to 50%
3 | Cc1sc2c(c1C)C(c1ccc(Cl)cc1)=N[C@@H](CC(=O)NCCCCNC(=O)c1cc(SC(=O)c3ccccc3)c3ncc(C(=O)NCCc4nccs4)cc3c1)c1nnc(C)n1-2 [Example 11JQ16] | 98 | 1.0 | 1.0 | 95 | 0.6 | 0.6 | ≤ 50 | ≥ 71 | 51 to 500 | ≥ 71 | ≤ 50 | ≥ 71 | 51 to 500 | ≥ 71 | 95 | 1.9 | 1.6 | 51 to 500 | ≥ 71 | 51 to 500 | Brd2, Brd3 and Brd4 protein levels (FIG. 5) (Brd2, Brd3 and Brd4): depletion of Brd2, Brd3 and Brd4 protein levels; Brd2, Brd3 and Brd4 protein levels (FIG. 4) (Brd2, Brd3 and Brd4; 4 h): depletion of Brd2, Brd3 and Brd4 protein levels; Dmax (Brd2; HeLa, Brd2, 4 h): 51 to 70%; DC50 (Brd3 [6]; HEK293, Brd3, 4 h): ≤ 50 nM; Dmax (Brd3 [6]; HEK293, Brd3, 4 h): ≥ 71%; DC50 (Brd3 [6]; HeLa, Brd3, 4 h): ≥ 501 nM; Dmax (Brd3 [6]; HeLa, Brd3, 4 h): 51 to 70%
